In ChEMBL document CHEMBL5726333, “C2-carbocyclic iminothiazine dioxides as BACE inhibitors, compositions, and their use” (2017):

Assays:
[1] = molecular target: Beta-secretase 1 (Homo sapiens, UniProt P56817); assay: HTRF FRET Assay: The compounds of the invention were determined to be potent inhibitors of BACE-1 using the following assay.The following reagents were used in this assay. Na+-Acetate pH 5.0; 1% Brij-35; Glycerol; Dimethyl Sulfoxide (DMSO); Recombinant human soluble BACE-1 catalytic domain (>95% pure); APP Swedish mutant peptide substrate (QSY7-APPswe-Eu): QSY7-[…]-Europium-amide.A homogeneous time-resolved FRET assay can be used to determine IC50 values for inhibitors of the soluble human BACE-1 catalytic domain. This assay monitors the increase of 620 nm fluorescence that resulted from BACE-1 cleavage of an APPswedish APPswe mutant peptide FRET substrate (QSY7-[…]-Europium-amide). This substrate contains an N-terminal QSY7 moiety that serves as a quencher of the C-terminal Europium fluorophore (620 nm Em). In the absence of enzyme activity, 620 nm fluorescence is low in the assay and increased linearly over 3 hours in the presence of uninhibited BACE-1 enzyme. Inhibition of BACE-1 cleavage of the QSY7-APPswe-Eu substrate by inhibitors is manifested as a suppression of 620 nm fluorescence.
Chain of Beta-secretase 1 (P56817 whole entry, the tested form may be a part): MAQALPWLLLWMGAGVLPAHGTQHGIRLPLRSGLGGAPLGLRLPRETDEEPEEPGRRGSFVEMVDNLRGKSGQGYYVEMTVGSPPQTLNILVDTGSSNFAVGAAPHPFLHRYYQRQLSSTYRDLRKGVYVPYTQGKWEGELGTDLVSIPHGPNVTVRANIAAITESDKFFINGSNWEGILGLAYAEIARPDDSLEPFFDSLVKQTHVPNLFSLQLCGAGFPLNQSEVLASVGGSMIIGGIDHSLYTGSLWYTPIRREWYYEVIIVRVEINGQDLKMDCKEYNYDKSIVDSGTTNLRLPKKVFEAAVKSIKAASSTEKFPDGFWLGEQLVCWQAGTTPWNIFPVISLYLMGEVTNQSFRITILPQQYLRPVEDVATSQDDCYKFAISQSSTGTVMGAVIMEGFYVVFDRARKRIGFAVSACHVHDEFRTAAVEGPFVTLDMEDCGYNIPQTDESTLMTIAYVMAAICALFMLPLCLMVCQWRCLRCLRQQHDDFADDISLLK

[2] = molecular target: T1, Beta-secretase 2 (Homo sapiens, UniProt Q9Y5Z0); assay: BACE-2 Assay: The compounds of the invention were determined to be potent inhibitors of BACE-2 using the following assay. Inhibitor IC50s at purified human autoBACE-2 are determined in a time-resolved endpoint proteolysis assay that measures hydrolysis of the QSY7-[…]-Eu-amide FRET peptide substrate (BACE-HTRF assay). BACE-mediated hydrolysis of this peptide results in an increase in relative fluorescence (RFU) at 620 nm after excitation with 320 nm light Inhibitor compounds, prepared at 3× the desired final concentration in 1×BACE assay buffer (20 mM sodium acetate pH 5.0, 10% glycerol, 0.1% Brij-35) supplemented with 7.5% DMSO are pre-incubated with an equal volume of autoBACE-2 enzyme diluted in 1×BACE assay buffer (final enzyme concentration 1 nM) in black 384-well NUNC plates for 30 minutes at 30° C. […] DMSO is present at 5% final concentration in the assay. Following laser excitation of sample wells at 320 nm, the fluorescence signal at 620 nm is collected for 400 ms following a 50 μs delay on a RUBYstar HTRF plate reader (BMG Labtechnologies). Raw RFU data is normalized to maximum (1.0 nM BACE/DMSO) and minimum (no enzyme/DMSO) RFU values.
T1 sequence (Q9Y5Z0 whole entry): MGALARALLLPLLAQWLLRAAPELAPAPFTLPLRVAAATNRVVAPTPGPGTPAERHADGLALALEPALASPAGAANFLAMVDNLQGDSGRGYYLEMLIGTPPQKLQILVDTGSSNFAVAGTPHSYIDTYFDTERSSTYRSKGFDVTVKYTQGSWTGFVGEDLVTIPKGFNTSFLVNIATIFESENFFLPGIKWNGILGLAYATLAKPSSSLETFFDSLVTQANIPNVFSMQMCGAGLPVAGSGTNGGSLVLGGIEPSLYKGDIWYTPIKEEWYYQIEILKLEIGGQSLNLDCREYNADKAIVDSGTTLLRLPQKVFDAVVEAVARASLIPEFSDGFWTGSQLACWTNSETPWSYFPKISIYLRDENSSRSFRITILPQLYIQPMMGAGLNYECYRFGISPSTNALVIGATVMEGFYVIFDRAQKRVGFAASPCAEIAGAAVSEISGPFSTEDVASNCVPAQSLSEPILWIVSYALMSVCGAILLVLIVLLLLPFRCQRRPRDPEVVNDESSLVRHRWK

[3] = molecular target: Cathepsin D (Homo sapiens, UniProt P07339); assay: Cathepsin-D Assay: The following reagents were used in this assay: Na+-Acetate pH 5.0; 1% Brij-35; Dimethyl Sulfoxide (DMSO); Purified human Cathepsin-D (>95% pure); Aspartyl protease peptide substrate AC-Cys(Eu_Chelate)-Gly-Lys-Pro_ile_leu_phe-Phe-Arg-Leu-Lys(QSY7)-ASP-ASP-NH2.As noted above, certain compounds of the invention exhibit good selectivity of BACE-1 over Cathepsin-D. A homogeneous …
Chain of Cathepsin D (P07339 65-162 limits assumed): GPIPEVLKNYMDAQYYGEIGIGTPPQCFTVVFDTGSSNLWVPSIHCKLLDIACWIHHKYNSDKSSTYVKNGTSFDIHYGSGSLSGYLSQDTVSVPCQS
Chain of Cathepsin D (P07339 169-412 limits assumed): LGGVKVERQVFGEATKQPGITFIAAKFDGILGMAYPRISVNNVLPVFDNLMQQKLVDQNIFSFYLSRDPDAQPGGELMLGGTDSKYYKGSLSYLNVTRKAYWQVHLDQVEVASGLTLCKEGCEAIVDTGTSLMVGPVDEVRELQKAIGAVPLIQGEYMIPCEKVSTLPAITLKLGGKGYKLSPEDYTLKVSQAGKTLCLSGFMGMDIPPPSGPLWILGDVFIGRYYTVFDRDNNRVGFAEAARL
Description: This substrate contains an C-terminal QSY7 moiety that serves as a quencher of the N-terminal Europium fluorophore (620 nm Em). In the absence of enzyme activity, 620 nm fluorescence is low in the assay and increased linearly over 1 hour in the presence of uninhibited Cathepsin-D enzyme. Inhibition of Cathespin D cleavage of the Eu-Aspartyl Protease-QSY7 substrate by inhibitors is manifested as a suppression of 620 nm fluorescence.

Structure (SMILES) | Ki [1] [nM] | Ki [2] [nM] | Ki [3] [nM]
C[C@@]1(c2cc(Nc3ccnc4cc(F)cnc34)ncc2F)CS(=O)(=O)[C@@](C)(C2CC2)C(N)=N1 | 8.5 | 1.7 | 4900
C[C@@]1(c2cc(Nc3nccc4cc(C#N)cnc34)ccc2F)CS(=O)(=O)[C@@](CF)(C2CC2)C(N)=N1 | 1.3 | 0.6 | 563
C[C@@]1(c2cc(Nc3ccnc4cccnc34)ncc2F)CS(=O)(=O)[C@@](C)(C2CC2)C(N)=N1 | 59 | 3.6 | > 9400
CC#CCOc1cnc2c(Nc3cnc(F)c([C@]4(C)CS(=O)(=O)[C@@](C)(C5CC5)C(N)=N4)c3)nccc2n1 | 1.8 | 24 | > 9400
COc1cnc2c(Nc3ccc(F)c([C@]4(C)CS(=O)(=O)[C@@](C)(C5CC5)C(N)=N4)c3)ccnc2c1 | 27 | 20 | > 9400
CC#CCOc1cnc2c(Nc3cnc(F)c([C@]4(C)CS(=O)(=O)[C@@](C)(C5CC5)C(N)=N4)c3)nccc2c1 | 2.8 | 120 | > 9400

Other lines, results leading:

Ki [1] [nM] | Ki [2] [nM] | Ki [3] [nM] | Structure (SMILES)
1.5 | 1.2 | > 9400 | CC#CCOc1cnc2c(Nc3cc([C@]4(C)CS(=O)(=O)[C@@](C)(C5CC5)C(N)=N4)c(F)cn3)nccc2n1
40 | 53 | > 9400 | COc1cnc2c(Nc3ccc(F)c([C@]4(C)CS(=O)(=O)[C@@](C)(C5CC5)C(N)=N4)c3)ccnc2n1
5.2 | 2.2 | > 9400 | COc1cnc2c(Nc3cc([C@]4(C)CS(=O)(=O)[C@@](C)(C5CC5)C(N)=N4)c(F)cn3)ccnc2n1
13 | 19 | > 9400 | C[C@@]1(c2cc(Nc3ncnc4cc(C#N)cnc34)ncc2F)CS(=O)(=O)[C@@](C)(C2CC2)C(N)=N1
12 | 1 | > 9400 | C[C@@]1(c2cc(Nc3nccc4cc(F)cnc34)ncc2F)CS(=O)(=O)[C@@](C)(C2CC2)C(N)=N1
